Results taken from patent publication US20250082618A1, “DOSING REGIMENS USING TOPICAL ROFLUMILAST COMPOSITIONS” (ARCUTIS BIOTHERAPEUTICS, INC., priority 2023, published 2025).

System: patients with atopic dermatitis
Assay: Phase III open-label trial: vIGA-AD, maintenance (BIW) dosing and disease control
Assay type: in vivo, human
Experimental: The vIGA-AD is a static evaluation of qualitative overall AD severity. This global assessment scale is an ordinal scale with five severity grades (reported only in integers of 0 to 4). Each grade is defined by a distinct and clinically relevant morphologic description that minimizes inter-observer variability (see Table 1). vIGA-AD is evaluated for the entire body except the scalp, palms, and soles.
A Phase III, multicenter, open-label clinical trial was carried out to investigate the use of a topical roflumilast emollient cream to treat patients with atopic dermatitis. The primary objective of this study was to assess long-term safety in a multicenter, open-label, single-arm study in subjects with atopic dermatitis treated with either […] (for subjects ≥6 years of age) or 0.05% (for subjects between 2 to 5 years of age) topical roflumilast cream.
The primary endpoints of the study were adverse events or serious adverse events. The secondary endpoints of this study were validated investigator Global assessment-atopic dermatitis (“vIGA-AD”) value 0 or 1 at each assessment, vIGA-AD success (defined as vIGA-AD value of 0 or 1 plus a 2-grade improvement from baseline), Worst Itch-Numeric Rating Score (“WI-NRS”) score over time, and Eczema Area and Severity Index (“EASI”) score over time.
All patients enrolled in this phase III study applied either a 0.15% or 0.05% roflumilast topical cream once daily until Week 4 of the study. Patients between 2-5 years of age received 0.05% roflumilast topical cream and patients 6 years of age or older received 0.15% roflumilast. Subjects who reached 6 years of age during the study were switched from 0.05% to 0.15% roflumilast topical cream at the first scheduled clinical visit following their sixth birthday. Study medication was applied for up to 24 or 52 weeks to all affected areas, except on the scalp. Beginning at the Week 4 visit, any subject who achieved vIGA-AD of 0 as confirmed by the Investigator at a scheduled or unscheduled clinical visit, was switched from daily to twice weekly administration of roflumilast topical cream. Instructions for the twice weekly administration were to apply the roflumilast topical cream on two nonconsecutive days per week (e.g. Monday and Thursday) to areas commonly and/or most recently affected by atopic dermatitis and any areas where atopic dermatitis was developing.
Clinical visits and phone contact were scheduled at Weeks 4, 12, 18, 24, 30, 36, 44, and 52 of the study. At clinical visits, subjects receiving twice weekly treatment (“maintenance treatment”) were permitted to continue maintenance treatment if vIGA-AD was either 0 or 1. Subjects evaluated at clinical visits with vIGA-AD 2 or greater were instructed to resume daily administration of roflumilast topical cream. Patients were also permitted to resume daily dosing, despite a vIGA-AD of 1, if signs or symptoms of atopic dermatitis were not adequately controlled with maintenance therapy.
Median duration of the first maintenance dosing period was ≥124 days for the 24-week cohort and ≥270 days for the 52-week cohort. 65% percent of these patients were on a maintenance dosing regimen through the final visit. Disease control was defined as a vIGA-AD score of 0, a switch to a maintenance dosing regimen, and a maintenance of a vIGA-AD score of 0 or 1.

O=C(Nc1c(Cl)cncc1Cl)c1ccc(OC(F)F)c(OCC2CC2)c1 [roflumilast, N-(3,5-dichloropyrid-4-yl)-3-cyclopropylmethoxy-4-difluoromethoxybenzamide]
Median duration of the first maintenance (BIW) dosing period (24-week cohort): ≥ 124 days
Median duration of the first maintenance (BIW) dosing period (52-week cohort): ≥ 270 days
number of patients who achieved vIGA-AD=0 and switched to maintenance (BIW) dosing (by Week 24 and Week 52): 132
patients who achieved vIGA-AD=0 and switched to maintenance (BIW) dosing (by Week 24 and Week 52, once daily, twice weekly after vIGA-AD 0): 20.1%
patients on maintenance (BIW) dosing regimen through the final visit (of the 132 patients who switched): 65%
